The values below are quoted from earlier work in patent publication US6034057A, “Peptide inhibitors of fibronectine” (Zeneca Limited, priority 1995, dated 2000).

Bridge positions count the residues as written; N and C are the ends. Ends that are not written are not given here. * marks the point of attachment. Acetyl(1-adamantyl) = O=C(CC12CC3CC(CC(C3)C1)C2)*

One data set deals with αIIbβ IIIa (Homo sapiens, UniProt P05106+P08514).
Data set [1] deals with fibronectin.
The target of the next data set is αvβ3 (Homo sapiens, UniProt P05106+P06756).
Chain of αvβ3 (P06756 31-889 limits assumed): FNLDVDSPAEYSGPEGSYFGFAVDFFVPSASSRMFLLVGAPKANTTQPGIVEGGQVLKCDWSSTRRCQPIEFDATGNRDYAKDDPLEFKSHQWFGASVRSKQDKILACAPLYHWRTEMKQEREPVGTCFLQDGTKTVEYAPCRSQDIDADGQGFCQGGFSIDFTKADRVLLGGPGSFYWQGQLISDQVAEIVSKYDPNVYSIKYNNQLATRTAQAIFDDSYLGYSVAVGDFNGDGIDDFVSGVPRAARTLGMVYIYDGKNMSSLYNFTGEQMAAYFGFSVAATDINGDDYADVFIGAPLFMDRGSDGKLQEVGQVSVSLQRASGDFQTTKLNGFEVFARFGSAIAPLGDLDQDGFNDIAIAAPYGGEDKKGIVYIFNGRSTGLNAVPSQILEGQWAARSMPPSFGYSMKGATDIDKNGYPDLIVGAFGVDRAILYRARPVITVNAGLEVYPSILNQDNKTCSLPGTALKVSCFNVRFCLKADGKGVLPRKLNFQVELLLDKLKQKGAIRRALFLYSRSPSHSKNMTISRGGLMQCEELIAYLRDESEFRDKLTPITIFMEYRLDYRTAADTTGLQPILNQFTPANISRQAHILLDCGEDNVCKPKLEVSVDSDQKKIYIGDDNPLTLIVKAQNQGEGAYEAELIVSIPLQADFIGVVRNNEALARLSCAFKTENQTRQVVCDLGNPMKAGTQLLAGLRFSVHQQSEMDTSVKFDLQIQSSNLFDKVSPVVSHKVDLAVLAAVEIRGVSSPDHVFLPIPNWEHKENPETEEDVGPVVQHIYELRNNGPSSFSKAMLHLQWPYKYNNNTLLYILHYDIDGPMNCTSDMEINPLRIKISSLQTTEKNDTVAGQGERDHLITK
Chain of αvβ3 (P06756 891-1048 partner limits assumed): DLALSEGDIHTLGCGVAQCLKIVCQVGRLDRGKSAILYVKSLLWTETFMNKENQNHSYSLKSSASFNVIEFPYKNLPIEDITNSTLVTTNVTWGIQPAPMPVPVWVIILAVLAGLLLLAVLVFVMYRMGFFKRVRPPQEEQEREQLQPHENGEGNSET
Chain of αvβ3 (P05106 27-788): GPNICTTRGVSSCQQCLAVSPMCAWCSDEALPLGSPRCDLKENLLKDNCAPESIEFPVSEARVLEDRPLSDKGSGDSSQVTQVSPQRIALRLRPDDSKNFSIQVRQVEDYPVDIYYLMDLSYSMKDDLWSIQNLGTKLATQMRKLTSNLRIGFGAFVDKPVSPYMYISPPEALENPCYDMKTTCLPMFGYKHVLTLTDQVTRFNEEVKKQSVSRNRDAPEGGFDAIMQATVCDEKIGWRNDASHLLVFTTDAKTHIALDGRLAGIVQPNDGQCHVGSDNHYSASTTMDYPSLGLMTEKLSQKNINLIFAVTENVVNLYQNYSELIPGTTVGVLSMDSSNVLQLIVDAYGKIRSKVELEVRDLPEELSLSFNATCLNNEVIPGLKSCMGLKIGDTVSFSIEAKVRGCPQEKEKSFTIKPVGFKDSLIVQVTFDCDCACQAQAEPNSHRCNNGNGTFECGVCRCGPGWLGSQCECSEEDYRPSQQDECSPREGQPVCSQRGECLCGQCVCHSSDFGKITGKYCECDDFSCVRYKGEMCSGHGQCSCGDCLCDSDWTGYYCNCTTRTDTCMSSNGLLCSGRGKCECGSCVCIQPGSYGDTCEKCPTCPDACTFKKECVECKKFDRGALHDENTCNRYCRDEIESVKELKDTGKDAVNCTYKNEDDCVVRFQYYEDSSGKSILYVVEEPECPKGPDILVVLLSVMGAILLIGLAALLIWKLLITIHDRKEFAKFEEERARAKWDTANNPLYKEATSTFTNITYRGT
Data set [2] has as its system fibronectin. This is another data set of the same source.
For data set [3], the system named is 120 kDa chymotryptic fragment of fibronectin.

As to “1-adamantaneacetyl-Cys-Gly-Arg-Gly-Asp-Ser-Pro-Cys ({Acetyl(1-adamantyl)}-CGRGDSPC; disulfide 1-8 (inferred))”, the “inhibition of function in αIIbβ IIIa-dependent assay” value with αIIbβ IIIa is on record as “inhibited function”. For the same substance, the “inhibition of binding of Jurkat cells to fibronectin coated plates” value in the data set with fibronectin [1] is given as “inhibited the binding of Jurkat cells to fibronectin coated plates”. Moreover, the “inhibition of function in αvβ3-dependent assay” value with αvβ3 is on record as “inhibited function”.

As for Arg-Cys-Asp-thioproline-Cys, the “inhibition of leukocyte cell adhesion to fibronectin” value with fibronectin [2] is given as “inhibitor of leukocyte cell adhesion to fibronectin”. The “inhibition of binding to the 120 kDa chymotryptic fragment of fibronectin” value in data set [3] is listed as “inhibited the binding to the 120 kDa chymotryptic fragment of fibronectin”.
